Eight molecules from US20030181441A1, “TACE INHIBITORS” (priority 1998, published 2003) can be followed below.

Assay type in all cases: biochemical
For experiment [1], the target named is MMP-13 (Homo sapiens, UniProt P45452). Nature of the experiment: Inhibition of MMP-13, fluorescence assay. The protocol: Human recombinant MMP-13 is activated with 2 mM APMA (p-aminophenyl mercuric acetate) for 1.5 hours, at 37° C. and is diluted to […] in assay buffer (50 mM Tris, pH 7.5, 200 mM sodium chloride, 5 mM calcium chloride, 20 μM zinc chloride, 0.02% brij). Twenty-five microliters of diluted enzyme is added per well of a 96 well microfluor plate. The enzyme is then diluted in a 1:4 ratio in the assay by the addition of inhibitor and substrate to give a final concentration in the assay of […].
10 mM stock solutions of inhibitors are made up in dimethyl sulfoxide and then diluted in assay buffer as per the inhibitor dilution scheme for inhibition of human collagenase (MMP-1): Twenty-five microliters of each concentration is added in triplicate to the microfluor plate. The final concentrations in the assay are 30 μM, 3 μM, 0.3 μM, and 0.03 μM.
Substrate (Dnp-Pro-Cha-Gly-Cys(Me)-His-Ala-Lys(NMA)—NH2) is prepared as for inhibition of human collagenase (MMP-1) and […] is added to each well to give a final assay concentration of 10 μM. Fluorescence readings (360 nm excitation; 450 emission) are taken at time 0 and every 5 minutes for 1 hour.
Positive controls consist of enzyme and substrate with no inhibitor and blanks consist of substrate only.
IC50's are determined as per inhibition of human collagenase (MMP-1). If IC50's are reported to be less than 0.03 μM, inhibitors are then assayed at final concentrations of 0.3 μM, 0.03 μM, 0.003 μM and 0.0003 μM.

Experiment [2] addresses TACE (Homo sapiens, UniProt P78536). Nature of the experiment: Recombinant TNFα converting enzyme (TACE) activity, fluorescent quenched substrate. To be noted: for MMP-1/TACE IC50 selectivity ratio: ratio of MMP-1 and TACE IC50 values. From the text: Method for the Evaluation of Recombinant TNFα Converting Enzyme Activity.
Preparation of Recombinant TACE:
A DNA fragment coding for the signal sequence, prodomain and catalytic domain of TACE (amino acids […]), was amplified by polymerase chain reaction using a human lung cDNA library as a template. The amplified fragment was cloned into pFastBac vector. The DNA sequence of the insert was confirmed for both the strands. A bacmid prepared using pFastBac in E. coli DH10Bac was transfected into SF9 insect cells. The virus particles were amplified to P1, P2, P3 stages. The P3 virus was infected into both Sf9 and High Five insect cells and grown at 27° C. for 48 hours. The medium was collected and used for assays and further purification.
Preparation of Fluorescent Quenched Substrate:
A model peptidic TNF-α substrate (LY-LeucineAlanineGlutamineAlanineValine-ArginineSerine-SerineLysine(CMTR)-Arginine (LY=Lucifer Yellow; CMTR=5-carboxytetramethyl Rhodamine)) was prepared and the concentration estimated by absorbance at 560 nm (E560, 60,000 M-1CM-1) according to the method of Geoghegan, K F, “Improved method for converting an unmodified peptide to an energy-transfer substrate for a proteinase.” Bioconjugate Chem. 7, 385-391 (1995). This peptide encompasses the cleavage cite on pro-TNF which is cleaved in vivo by TACE.
The reaction, carried out in a 96 well plate (Dynatech), was comprised of 70 μl of buffer solution (25 mM Hepes-HCl, pH 7.5, plus 20 uM ZnCl2), 10 μl of 100 μM fluorescent quenched substrate, 10 μl of a DMSO (5%) solution of test compound, and an amount of r-TACE enzyme which will cause 50% cleavage in 60 minutes—in a total volume of 100 μl. The specificity of the enzyme cleavage at the amide bond between alanine and valine was verified by HPLC and mass spectrometry. Initial rates of cleavage were monitored by measuring the rate of increase in fluorescence at 530 nm (excitation at 409 nm) over 30 minutes. The experiment was controlled as follows: 1) for background fluorescence of substrate; 2) for fluorescence of fully cleaved substrate; 3) for fluorescence quenching or augmentation from solutions containing test compound.
The rates from the non-test compound containing “control” reactions were averaged to establish the 100% value. The rate of reaction in the presence of test compound was compared to that in the absence of compound, and tabulated as “percent of non-test compound containing control. The results were plotted as “% of control” vs. the log of compound concentration and a half-maximal point or IC50 value determined. The IC50 for the above assay is a measure of the inhibition of the TNF-α proteolytic activity of TACE. Blockage of binding of TNF-α to TACE as used herein is as described in U.S. Pat. No. 5,830,742, issued Nov. 3, 1998.

In experiment [3] the target is T1, MMP-1 (Homo sapiens, UniProt P03956).
T1 sequence (P03956 100-469): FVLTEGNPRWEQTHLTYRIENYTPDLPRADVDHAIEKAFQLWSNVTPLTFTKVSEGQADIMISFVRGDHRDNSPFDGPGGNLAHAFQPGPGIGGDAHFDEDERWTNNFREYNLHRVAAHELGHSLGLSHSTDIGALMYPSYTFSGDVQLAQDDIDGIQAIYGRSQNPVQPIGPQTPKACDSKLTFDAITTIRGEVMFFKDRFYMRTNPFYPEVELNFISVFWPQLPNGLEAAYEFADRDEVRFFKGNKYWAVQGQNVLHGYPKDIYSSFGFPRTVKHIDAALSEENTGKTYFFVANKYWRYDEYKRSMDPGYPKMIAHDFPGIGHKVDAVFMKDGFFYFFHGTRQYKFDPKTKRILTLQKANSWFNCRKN
Nature of the experiment: Inhibition of Human Collagenase (MMP-1), fluorescence assay. The protocol:
Inhibition of Human Collagenase (MMP-1)
Human recombinant collagenase is activated with trypsin using the following ratio: 10 μg trypsin per 100 μg of collagenase. The trypsin and collagenase are incubated at room temperature for 10 minutes then a five fold excess (50 μg/10 μg trypsin) of soybean trypsin inhibitor is added.
10 mM stock solutions of inhibitors are made up in dimethyl sulfoxide and then diluted using the following Scheme:
Twenty-five microliters of each concentration is then added in triplicate to appropriate wells of a 96 well microfluor plate. The final concentration of inhibitor will be a 1:4 dilution after addition of enzyme and substrate. Positive controls (enzyme, no inhibitor) are set up in wells D1-D6 and blanks (no enzyme, no inhibitors) are set in wells D7-D12.
Collagenase is diluted to 400 ng/ml and 25 μl is then added to appropriate wells of the microfluor plate. Final concentration of collagenase in the assay is 100 ng/ml.
Substrate (DNP-Pro-Cha-Gly-Cys(Me)-His-Ala-Lys(NMA)-NH2) is made as a 5 mM stock in dimethyl sulfoxide and then diluted to […] in assay buffer. The assay is initiated by the addition of 50 μl substrate per well of the microfluor plate to give a final concentration of […] Fluorescence readings (360 nm excitation, 460 nm emission) were taken at time 0 and then at 20 minute intervals. The assay is conducted at room temperature with a typical assay time of 3 hours.
Fluorescence vs time is then plotted for both the blank and collagenase containing samples (data from triplicate determinations is averaged). […] The zero time is used as a blank for each compound at each concentration and these values are subtracted from the 120 minute data. Data is plotted as inhibitor concentration vs % control (inhibitor fluorescence divided by fluorescence of collagenase alone×100). IC50's are determined from the concentration of inhibitor that gives a signal that is 50% of the control.
If IC50's are reported to be <0.03 μM then the inhibitors are assayed at concentrations of 0.3 μM, 0.03 μM, […].

SMILES strings stand for the structures.

Sequence of TACE (P78536 223-474): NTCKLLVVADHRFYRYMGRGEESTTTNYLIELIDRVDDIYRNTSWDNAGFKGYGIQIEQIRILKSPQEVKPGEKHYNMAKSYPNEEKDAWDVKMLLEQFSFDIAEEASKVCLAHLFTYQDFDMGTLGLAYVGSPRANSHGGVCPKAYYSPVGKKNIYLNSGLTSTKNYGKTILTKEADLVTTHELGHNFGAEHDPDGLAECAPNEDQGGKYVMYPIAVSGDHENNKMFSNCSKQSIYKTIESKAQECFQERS

By IC50 is commonly meant the point on the concentration scale where inhibition reaches its midpoint. For the molecule `CC1(C)[C@H](C(=O)NO)N(S(=O)(=O)c2ccc(OCc3ccc(F)cc3)cc2)CC[S+]1[O-]` (some centres unmarked), the IC50 came to 5 nM in experiment [1], 7.4 nM in experiment [2] and 345 nM in experiment [3]. In experiment [2], the “MMP-1/TACE IC50 selectivity ratio” value was determined as 46.6.

For the molecule `CC1(C)[C@H](C(=O)NO)N(S(=O)(=O)c2ccc(OCc3ccc(F)cc3)cc2)CCS1(=O)=O`, the IC50 in experiment [1] worked out at 1.4 nM; in experiment [2] it was 7.2 nM; in experiment [3], 305 nM. In experiment [2], the “MMP-1/TACE IC50 selectivity ratio” value was found to be 42.4.

In the case of `C[C@@H]1NCCN(S(=O)(=O)c2ccc(OCc3ccccc3)cc2)[C@H]1C(=O)NO`, the IC50 in experiment [1] turned out to be 8 nM; in experiment [2], 25 nM; in experiment [3], 7480 nM. Further, the “MMP-1/TACE IC50 selectivity ratio” value in experiment [2] is 299.

Take `Cc1ccccc1COc1ccc(S(=O)(=O)N2CCN[C@@H](C)[C@@H]2C(=O)NO)cc1`: the IC50 in experiment [1] turned out to be 18 nM; in experiment [2], 19 nM; in experiment [3], 10600 nM. The “MMP-1/TACE IC50 selectivity ratio” value in experiment [2] was found to be 558.

`CC(=O)N1CCN(S(=O)(=O)c2ccc(OCc3ccccc3C)cc2)[C@@H](C(=O)NO)[C@@H]1C`: the IC50 in experiment [1] worked out at 3 nM; in experiment [2] it was 6.2 nM; in experiment [3], 1600 nM. Further, the “MMP-1/TACE IC50 selectivity ratio” value in experiment [2] is given as 258.

Regarding `Cc1ccc(C)c(COc2ccc(S(=O)(=O)N3C[C@H](C)O[C@@H](C)[C@@H]3C(=O)NO)cc2)c1`, the IC50 in experiment [1] came to 88 nM; in experiment [2] it was 10 nM; in experiment [3] it was 3500 nM. Also, the “MMP-1/TACE IC50 selectivity ratio” value in experiment [2] was 350.

As for `C[C@@H]1O[C@@H](CO)CN(S(=O)(=O)c2ccc(OCc3ccc(F)cc3)cc2)[C@H]1C(=O)NO`, the values for the IC50 in experiment [1], in experiment [2] and in experiment [3] were 1 nM, 4.5 nM and 1400 nM, respectively. In addition, the “MMP-1/TACE IC50 selectivity ratio” value in experiment [2] is given as 311.

Consider `C[C@@H]1O[C@@H](C)CN(S(=O)(=O)c2ccc(OCc3ccncc3)cc2)[C@H]1C(=O)NO`, for which the IC50 in experiment [1] is 6 nM; in experiment [2] it was 12 nM; in experiment [3], 2000 nM. For the same molecule, the “MMP-1/TACE IC50 selectivity ratio” value in experiment [2] amounted to 167.
